From patent US11951108B2, “Combination therapy for treating cancer” (Epizyme, Inc., priority 2016, dated 2024)

Key:
BT474 = experiment: In vitro combination study, breast cancer cell line BT474; conditions: ER/PR +/+, HER2 +, 7 day pre-treatment + 6 day co-treatment
BT-20 = experiment: In vitro combination study, breast cancer cell line BT-20; conditions: ER/PR −/−, HER2 −, 7 day pre-treatment + 6 day co-treatment
ES-2 = experiment: In vitro combination study, ovarian cancer cell line ES-2; conditions: 4+3 model
SUM52PE = experiment: In vitro combination study, breast cancer cell line SUM52PE; conditions: ER/PR −/−, HER2 −, 7 day pre-treatment + 6 day co-treatment
HCC1187 = experiment: In vitro combination study, breast cancer cell line HCC1187; conditions: ER/PR −/−, HER2 −, 7 day pre-treatment + 6 day co-treatment
HCC1937 = experiment: In vitro combination study, breast cancer cell line HCC1937; conditions: ER/PR −/−, HER2 +, 7 day pre-treatment + 6 day co-treatment
COV362 = experiment: In vitro combination study, ovarian cancer cell line COV362; conditions: COV362; 4+3 model
OVSAHO = experiment: In vitro combination study, ovarian cancer cell line OVSAHO; conditions: 4+3 model
COV644* = experiment: In vitro combination study, ovarian cancer cell line COV644; conditions: COV644*; 7+3 model
MDA-MB-231 = experiment: In vitro combination study, breast cancer cell line MDA-MB-231; conditions: ER/PR −/−, HER2 −, 7 day pre-treatment + 6 day co-treatment
MDA-MB-175VII = experiment: In vitro combination study, breast cancer cell line MDA-MB-175VII; conditions: ER/PR +/+, HER2 +, 7 day pre-treatment + 6 day co-treatment

`CN(Cc1cnc2nc(N)nc(N)c2n1)c1ccc(C(=O)N[C@@H](CCC(=O)O)C(=O)O)cc1` [Methotrexate] was tested. Which “Synergy or antagonism of second agent with tazemetostat (IC50 shift of second agent)” value (ZR-75-1) did it give?
The value was “A (key: B: Synergy > 4× IC50 shift; Synergy > 2× IC50 shift; No Effect; Antagonism; X: Not Tested)”.

What about the “Synergy or antagonism of second agent with tazemetostat (IC50 shift of second agent)” value (HCC1143) of the same molecule?
The value was “A (key: B: Synergy > 4× IC50 shift; Synergy > 2× IC50 shift; No Effect; Antagonism; X: Not Tested)”.

And the “Synergy or antagonism of second agent with tazemetostat (IC50 shift of second agent)” value (DU4475)?
Its value is “A (key: B: Synergy > 4× IC50 shift; Synergy > 2× IC50 shift; No Effect; Antagonism; X: Not Tested)”.

What about the “Synergy or antagonism of second agent with tazemetostat (IC50 shift of second agent)” value (OVMANA) of the same molecule?
The value was “A (key: B: Synergy > 4× IC50 shift; Synergy > 2× IC50 shift; No Effect; Antagonism; X: Not Tested)”.

What about the “Synergy or antagonism of second agent with tazemetostat (IC50 shift of second agent)” value (OVISE) of the same molecule?
Its value is “A (key: B: Synergy > 4× IC50 shift; Synergy > 2× IC50 shift; No Effect; Antagonism; X: Not Tested)”.

What about the “Synergy or antagonism of second agent with tazemetostat (IC50 shift of second agent)” value (COV504) of the same molecule?
Its value is “A (key: B: Synergy > 4× IC50 shift; Synergy > 2× IC50 shift; No Effect; Antagonism; X: Not Tested)”.

And the “Synergy or antagonism of second agent with tazemetostat (IC50 shift of second agent)” value (TOV112D)?
Its value is “A (key: B: Synergy > 4× IC50 shift; Synergy > 2× IC50 shift; No Effect; Antagonism; X: Not Tested)”.

And the “Synergy or antagonism of second agent with tazemetostat (IC50 shift of second agent)” value (SNU840)?
The value was “A (key: B: Synergy > 4× IC50 shift; Synergy > 2× IC50 shift; No Effect; Antagonism; X: Not Tested)”.

What about the “Synergy or antagonism of second agent with tazemetostat (IC50 shift of second agent)” value (BT474) of the same molecule?
The value was “A (Antagonism)”.

And the “Synergy or antagonism of second agent with tazemetostat (IC50 shift of second agent)” value (BT-20)?
Its value is “C (Synergy > 2× IC50 shift)”.

And the “Synergy or antagonism of second agent with tazemetostat (IC50 shift of second agent)” value (ES-2)?
The value was “A (Antagonism)”.

And the “Synergy or antagonism of second agent with tazemetostat (IC50 shift of second agent)” value (SUM52PE)?
The value was “A (Antagonism)”.

What about the “Synergy or antagonism of second agent with tazemetostat (IC50 shift of second agent)” value (HCC1187) of the same molecule?
Its value is “A (Antagonism)”.

And the “Synergy or antagonism of second agent with tazemetostat (IC50 shift of second agent)” value (HCC1937)?
The value was “A (Antagonism)”.

What about the “Synergy or antagonism of second agent with tazemetostat (IC50 shift of second agent)” value (COV362) of the same molecule?
Its value is “A (Antagonism)”.

And the “Synergy or antagonism of second agent with tazemetostat (IC50 shift of second agent)” value (OVSAHO)?
The value was “A (Antagonism)”.

And the “Synergy or antagonism of second agent with tazemetostat (IC50 shift of second agent)” value (COV644*)?
The value was “A (Antagonism)”.

And the “Synergy or antagonism of second agent with tazemetostat (IC50 shift of second agent)” value (MDA-MB-231)?
The value was “A (Antagonism)”.

And the “Synergy or antagonism of second agent with tazemetostat (IC50 shift of second agent)” value (MDA-MB-175VII)?
The value was “A (Antagonism)”.
